Source: patent US20060079555A1, “Diarylmethylidene piperidine derivatives, preparations thereof and uses thereof” (AstraZeneca AB, priority 2003, published 2006)

Target: T1, human δ receptor (Homo sapiens, UniProt P41143)
T1 construct: expressed in transfected cells
Experiment: GTP[γ]35S binding functional assay, human δ receptor
Assay type: biochemical
Details: Emax in relation to the standard δ agonist SNC80
Protocol: The agonist activity of the compounds is measured by determining the degree to which the compounds receptor complex activates the binding of GTP to G-proteins to which the receptors are coupled. In the GTP binding assay, GTP[γ]^35S is combined with test compounds and membranes from HEK-293S cells expressing the cloned human opioid receptors or from homogenised rat and mouse brain. Agonists stimulate GTP[γ]^35S binding in these membranes. The EC50 and Emax values of compounds are determined from dose-response curves. Right shifts of the dose response curve by the delta antagonist naltrindole are performed to verify that agonist activity is mediated through delta receptors. The Emax values were determined in relation to the standard δ agonist SNC80, i.e., higher than 100% is a compound that have better efficacy than SNC80.

T1 sequence (P41143 whole entry): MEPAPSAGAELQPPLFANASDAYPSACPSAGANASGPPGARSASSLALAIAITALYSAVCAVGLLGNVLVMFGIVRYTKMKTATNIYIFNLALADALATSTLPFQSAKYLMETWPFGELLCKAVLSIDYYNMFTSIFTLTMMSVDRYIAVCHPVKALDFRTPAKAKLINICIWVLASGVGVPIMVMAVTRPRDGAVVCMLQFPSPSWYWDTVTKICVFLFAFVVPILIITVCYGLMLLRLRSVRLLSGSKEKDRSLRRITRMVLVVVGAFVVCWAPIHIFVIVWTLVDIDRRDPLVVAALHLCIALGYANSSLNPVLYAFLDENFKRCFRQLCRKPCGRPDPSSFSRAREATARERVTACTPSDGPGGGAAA

Structure (SMILES) | Emax [%]
CCN(CC)C(=O)c1ccc(C(=C2CCNCC2)c2cccc(C(=O)N(C)CCc3ccccc3)c2)cc1 [Compound 14, 4-[(3-{[methyl(2-phenylethyl)amino]carbonyl}phenyl)(piperidin-4-ylidene)methyl]-N,N-diethylbenzamide] | 69 to 105
CCN(CC)C(=O)c1ccc(C(=C2CCNCC2)c2cccc(C(=O)N[C@H](C)c3ccc(C)cc3)c2)cc1 [Compound 9, 4-[[3-({[(1R)1-(4-methylphenyl)ethyl]amino}carbonyl)phenyl](piperidin-4-ylidene)methyl]-N,N-diethylbenzamide] | 69 to 105
CCN(CC)C(=O)c1ccc(C(=C2CCNCC2)c2cccc(C(=O)NCCc3ccccc3)c2)cc1 [Compound 3, 4-[(3-{[(2-phenylethyl)amino]carbonyl}phenyl)(piperidin-4-ylidene)methyl]-N,N-diethylbenzamide] | 69 to 105
CCN(CC)C(=O)c1ccc(C(=C2CCNCC2)c2cccc(C(=O)NC3CCCC3)c2)cc1 [Compound 4, 4-[{3-[(cyclopentlamino)carbonyl]phenyl}(piperidin-4-ylidene)methyl]-N,N-diethylbenzamide] | 69 to 105
CCN(CC)C(=O)c1ccc(C(=C2CCNCC2)c2cccc(C(=O)NC3CCCCC3)c2)cc1 [Compound 5] | 69 to 105
CCN(CC)C(=O)c1ccc(C(=C2CCNCC2)c2cccc(C(=O)NCC3CCCCC3)c2)cc1 [Compound 6] | 69 to 105
CCN(CC)C(=O)c1ccc(C(=C2CCNCC2)c2cccc(C(=O)Nc3ccc(C)nc3C)c2)cc1 [Compound 11] | 69 to 105
CCN(CC)C(=O)c1ccc(C(=C2CCNCC2)c2cccc(C(=O)NCc3ccccc3Cl)c2)cc1 [Compound 7, 4-[(3-{[(2-chlorobenzyl)amino]carbonyl}phenyl)(piperidin-4-ylidene)methyl]-N,N-diethylbenzamide] | 69 to 105
CCN(CC)C(=O)c1ccc(C(=C2CCNCC2)c2cccc(C(=O)N3CCCCC3)c2)cc1 [Compound 15] | 69 to 105
CCN(CC)C(=O)c1ccc(C(=C2CCNCC2)c2cccc(C(=O)Nc3nc(C)cs3)c2)cc1 [Compound 10, 4-[(3-{[(4-methyl-1,3-thiazol-2-yl)amino]carbonyl}phenyl)(piperidin-4-ylidene)methyl]-N,N-diethylbenzamide] | 69 to 105
CCN(CC)C(=O)c1ccc(C(=C2CCNCC2)c2cccc(C(=O)NCC(C)C)c2)cc1 [Compound 12, 4-[{3-[(isobutylamino)carbonyl]phenyl}(piperidin-4-ylidene)methyl]-N,N-diethylbenzamide] | 69 to 105
CCN(CC)C(=O)c1ccc(C(=C2CCNCC2)c2cccc(C(=O)N3CCCC3)c2)cc1 [Compound 16, N,N-diethyl-4-{piperidin-4-ylidene[3-(pyrrolidin-1-ylcarbonyl)phenyl]methyl}benzamide] | 69 to 105
CCN(CC)C(=O)c1ccc(C(=C2CCNCC2)c2cccc(C(=O)NCc3ccccc3)c2)cc1 [Compound 2, 4-[{3-[(benzylamino)carbonyl]phenyl}(piperidin-4-ylidene)methyl]-N,N-diethylbenzamide] | 69 to 105
CCN(CC)C(=O)c1ccc(C(=C2CCNCC2)c2cccc(C(=O)NCc3ccccc3F)c2)cc1 [Compound 8, 4-[(3-{[(2-fluorobenzyl)amino]carbonyl}phenyl)(piperidin-4-ylidene)methyl]-N,N-diethylbenzamide] | 69 to 105
CCN(CC)C(=O)c1ccc(C(=C2CCNCC2)c2cccc(C(=O)Nc3ccccc3)c2)cc1 [Compound 1, 4-[[3-(anilinocarbonyl)phenyl](piperidin-4-ylidene)methyl]-N,N-diethylbenzamide] | 69 to 105
CCC(CC)NC(=O)c1cccc(C(=C2CCNCC2)c2ccc(C(=O)N(CC)CC)cc2)c1 [Compound 13, 4-[(3{[(1-ethylpropyl)amino]carbonyl}phenyl)(piperidin-4-ylidene)methyl]-N,N-diethylbenzamide] | 69 to 105
